# Data taken from US12389911B2, “Benzimidazole compound or salt thereof, agricultural and horticultural insecticidal and acaricidal agent containing said compound, and method for using same” (NIHON NOHYAKU CO., LTD., priority 2019, dated 2025).
# Key:
# [1] = tested on: Green peach aphid (Myzus persicae); test: Test for control efficacy on green peach aphid (foliar application on Chinese cabbage); assay type: in vivo; details: 500 ppm, foliar application to potted Chinese cabbage, 6 days after application
# Excerpt: Test for Control Efficacy on Green Peach Aphid (Myzus persicae) Chinese cabbage plants were planted in plastic pots (diameter: 8 cm, height: 8 cm), green peach aphids were propagated on the plants, and the number of surviving Green peach aphids in each pot was counted. The benzimidazole compounds represented by the general formula (1) of the present invention or salts thereof were separately dispersed in water and diluted to 500 ppm. The agrochemical dispersions were applied to the foliage of the potted Chinese cabbage plants. After the plants were air-dried, the pots were kept in a greenhouse. At 6 days after the foliar application, the number of surviving Green peach aphids on the Chinese cabbage plant in each pot was counted, the control rate was calculated according to the formula shown below, and the control efficacy was evaluated according to the criteria shown below. Control rate=100−{(T×Ca)/(Ta×C)}×100 [Expression 1] Ta: the number of survivors before the foliar application in a treatment plot T: the number of survivors after the foliar application in a treatment plot Ca: the number of survivors before the foliar application in a non-treatment plot C: the number of survivors after the foliar application in a non-treatment plot Criteria • A: the control rate is 100%. • B: the control rate is 90 to 99%. • C: the control rate is 80 to 89%. • D: the control rate is 50 to 79%.
# [2] = tested on: Two-spotted spider mite (Tetranychus urticae); test: Acaricidal action on two-spotted spider mite (kidney bean leaf disk spray); assay type: in vivo; details: 500 ppm, adult females, 25° C., two days after treatment
# Experimental: Acaricidal Action on Two-Spotted Spider Mite (Tetranychus urticae)
# Leaf disk having a diameter of 2 cm was prepared by leaves of kidney bean, and the leaf disk was placed on the wetted filter paper. Adult hens of two-spotted spider mite were inoculated on the wetted filter paper, and then 50 ml of an agrochemical dispersion, prepared by diluting a formulation containing the benzimidazole compound represented by the general formula (1) of the present invention or salt thereof as an active ingredient to adjust each of the concentrations to 500 ppm, was sprayed on turntable uniformly. After the spraying, it was allowed to stand in a thermostatic chamber at 25° C. Two days after the treatment of an agrochemical dispersion, the dead mites were counted, the corrected mortality rate was calculated according to the formula shown below, and the acaricidal efficacy was evaluated according to the criteria of Test Example 2. This test was conducted in duplicate using 10 adult hens of two-spotted spider per plot. Corrected mortality(%)=(Number of dead mites in a non-treatment plot−Number of dead mites in a treatment plot)/(Number of dead mites in a non-treatment plot)×100 [Expression 4]
Structure (SMILES),"control efficacy (control rate), activity level [1]","acaricidal efficacy (corrected mortality rate), activity level [2]"
CCS(=O)(=O)n1c(-n2cnc(C(=O)Nc3ccccc3)c2)nc2ccccc21 [Compound 1-30],D or higher,
CCS(=O)(=O)n1c(-n2cc(/C=C/C(=O)OC(C)(C)C)c(C(F)(F)F)n2)nc2ccccc21 [Compound 2-24],D or higher,D or higher
CCS(=O)(=O)n1c(-n2cnc(CCc3ccc(Cl)cc3Cl)c2)nc2ccccc21 [Compound 1-13],D or higher,D or higher
CCS(=O)(=O)n1c(-n2cc(C3CC3)c(C(F)(F)F)n2)nc2ccccc21 [Compound 2-20],D or higher,D or higher
CCS(=O)(=O)n1c(-n2cnc(C(F)(F)C(F)(F)C(F)(F)C(F)(F)F)c2)nc2ccccc21 [Compound 1-27],D or higher,D or higher
CCC(C)(C)OC(=O)c1cn(-c2nc3ccccc3n2S(=O)(=O)CC)nc1C(F)(F)F [Compound 2-54],D or higher,D or higher
CCS(=O)(=O)n1c(-n2cc(C(=O)OCC(C)(C)C)c(C(F)(F)F)n2)nc2ccccc21 [Compound 2-28],D or higher,D or higher
CCCCCCCCc1cn(-c2nc3ccccc3n2S(=O)(=O)CC)cn1 [Compound 1-4],D or higher,D or higher
CCS(=O)(=O)n1c(-n2cc(C#Cc3ccc(C(F)(F)F)cc3)cn2)nc2ccccc21 [Compound 2-8],D or higher,D or higher
CCS(=O)(=O)n1c(-n2cnc(COCC(F)(F)C(F)(F)C(F)(F)F)c2)nc2ccccc21 [Compound 1-32],D or higher,D or higher
CCS(=O)(=O)n1c(-n2cnc(Cc3ccccc3)c2)nc2ccccc21 [Compound 1-8],D or higher,D or higher
CCS(=O)(=O)n1c(-n2cc(Cl)c(OCC(F)(F)C(F)(F)F)n2)nc2ccccc21 [Compound 2-39],D or higher,D or higher
CS(=O)(=O)n1c(-n2cc(I)c(C(F)(F)F)n2)nc2ccccc21 [Compound 2-15],D or higher,D or higher
CCS(=O)(=O)n1c(-n2cc(Br)c(Br)n2)nc2ccccc21 [Compound 2-34],D or higher,D or higher
CCc1cn(-c2nc3ccccc3n2S(=O)(=O)CC)nc1C(F)(F)F [Compound 2-19],D or higher,D or higher
CCS(=O)(=O)n1c(-n2ccc(C(=O)OC(C)(C)C)n2)nc2ccccc21 [Compound 2-43],D or higher,D or higher
CCS(=O)(=O)n1c(-n2cc(C(=O)OC(C)C)c(C(F)(F)F)n2)nc2ccccc21 [Compound 2-53],D or higher,D or higher
CCS(=O)(=O)n1c(-n2cc(C(=O)OC(C)(C)C)c(C(F)F)n2)nc2ccccc21 [Compound 2-51],D or higher,D or higher
CCS(=O)(=O)n1c(-n2cnc(CCc3ccc(Cl)cc3)c2)nc2ccccc21 [Compound 1-12],D or higher,D or higher
CCS(=O)(=O)n1c(-n2cc(C(F)(C(F)(F)F)C(F)(F)F)cn2)nc2ccccc21 [Compound 2-10],D or higher,D or higher
CCCCCC/C=C\c1cn(-c2nc3ccccc3n2S(=O)(=O)CC)cn1 [Compound 1-6],D or higher,D or higher
CCS(=O)(=O)n1c(-n2cc(C(=O)OC(C)(C)C)c(OC(F)F)n2)nc2ccccc21 [Compound 2-139],,D or higher
CCS(=O)(=O)n1c(-n2cnc(CCc3ccc(C(C)(C)C)cc3)c2)nc2ccccc21 [Compound 1-10],,D or higher

Structure (SMILES),"control efficacy (control rate), activity level [1]","acaricidal efficacy (corrected mortality rate), activity level [2]"
CCS(=O)(=O)n1c(-n2cc(C(=O)SC(C)(C)C)c(C(F)(F)F)n2)nc2ccccc21 [Compound 2-31],,D or higher
CCS(=O)(=O)n1c(-n2cnc(C(F)(F)F)n2)nc2ccccc21 [Compound 3-1],D or higher,D or higher
CCS(=O)(=O)n1c(-n2cnc(I)c2)nc2ccccc21 [Compound 1-20],,D or higher
CCS(=O)(=O)n1c(-n2cc(Br)c(C(F)(F)F)n2)nc2ccccc21 [Compound 2-14],,D or higher
CCS(=O)(=O)n1c(-n2cc(C#Cc3ccccc3)c(C(=O)OC(C)(C)C)n2)nc2ccccc21 [Compound 2-106],,D or higher
CCS(=O)(=O)n1c(-n2cc(CCC(=O)OC(C)(C)C)c(OCC(F)(F)F)n2)nc2ccccc21 [Compound 2-102],,D or higher
CCS(=O)(=O)n1c(-n2cc(C(=O)CC(C)(C)C)c(CC(C)(C)C)n2)nc2ccccc21 [Compound 2-131],,D or higher
CCCCOc1nn(-c2nc3ccccc3n2S(=O)(=O)CC)cc1Br [Compound 2-37],,D or higher
CCCCCc1cn(-c2nc3ccccc3n2S(=O)(=O)CC)nc1C(F)(F)F [Compound 2-125],,D or higher
CCS(=O)(=O)n1c(-n2cc(Cl)c(C(F)(F)F)n2)nc2ccccc21 [Compound 2-13],D or higher,D or higher
C#Cc1cn(-c2nc3ccccc3n2S(=O)(=O)CC)nc1C(F)(F)F [Compound 2-110],,D or higher
CCS(=O)(=O)n1c(-n2cc(C(=O)OC(C(F)(F)F)C(F)(F)F)cn2)nc2ccccc21 [Compound 2-93],,D or higher
CCCCCc1cn(-c2nc3ccccc3n2S(=O)(=O)CC)cn1 [Compound 1-2],,D or higher
CCS(=O)(=O)n1c(-n2cc(Br)c(OC(F)(F)C(=O)N(C)C)n2)nc2ccccc21 [Compound 2-136],,D or higher
CCS(=O)(=O)n1c(-n2cc(I)c(C(F)(F)F)n2)nc2ccccc21 [Compound 2-16],,D or higher
CCS(=O)(=O)n1c(-n2cnc(C(=O)OC(C)(C)c3ccccc3)c2)nc2ccccc21 [Compound 1-36],,D or higher
CCS(=O)(=O)n1c(-n2cc(CCC(=O)OC(C)(C)C)c(C(F)(F)F)n2)nc2ccccc21 [Compound 2-61],,D or higher
CCCc1nn(-c2nc3ccccc3n2S(=O)(=O)CC)cc1C(=O)OC(C)(C)C [Compound 2-72],,D or higher
CCS(=O)(=O)n1c(-n2cc(C#CCOCC(F)(F)F)c(C(F)(F)F)n2)nc2ccccc21 [Compound 2-138],,D or higher
CCS(=O)(=O)n1c(-n2cc(C(=O)OC(C)(C)C)c(/C=C/C(=O)OC(C)(C)C)n2)nc2ccccc21 [Compound 2-144],,D or higher
CCCC#Cc1cn(-c2nc3ccccc3n2S(=O)(=O)CC)nc1C(F)(F)F [Compound 2-122],,D or higher
CCOC(=O)c1cn(-c2nc3ccccc3n2S(=O)(=O)CC)nc1C(F)F [Compound 2-33],,D or higher
CCS(=O)(=O)n1c(-n2cc(C#CC(C)(C)OC)c(C(F)(F)F)n2)nc2ccccc21 [Compound 2-129],,D or higher
